Tests used:
B-Raf = B-Raf (Homo sapiens, UniProt P15056); test: B-Raf kinase activity assay (AlphaScreen, biotin-MEK1 substrate); details: 100 μM ATP, 100 nM biotin-MEK1, 45 minutes at room temperature; read-out: Biochemical activity (IC50 μM) B-Raf
Procedure, shortened: (§1)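 AlphaScreen detection of phospho-MEK1 uses anti-phospho-MEK1/2 antibody and donor/acceptor beads, incubated 3 h. The kinase step runs 45 min at room temperature with 0.1 ng enzyme, 100 nM biotin-MEK1 and 100 μM ATP in 50 mM HEPES pH 7.0. IC50 is derived from eight compound concentrations.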

B-Raf V600E = B-Raf V600E (Homo sapiens, UniProt P15056, V600E); test: B-Raf V600E kinase activity assay (AlphaScreen, biotin-MEK1 substrate); details: 100 μM ATP, 100 nM biotin-MEK1, 45 minutes at room temperature, read-out: Biochemical activity (IC50 μM) V600E
B-Raf V600E, sequence (P15056 whole entry V600E): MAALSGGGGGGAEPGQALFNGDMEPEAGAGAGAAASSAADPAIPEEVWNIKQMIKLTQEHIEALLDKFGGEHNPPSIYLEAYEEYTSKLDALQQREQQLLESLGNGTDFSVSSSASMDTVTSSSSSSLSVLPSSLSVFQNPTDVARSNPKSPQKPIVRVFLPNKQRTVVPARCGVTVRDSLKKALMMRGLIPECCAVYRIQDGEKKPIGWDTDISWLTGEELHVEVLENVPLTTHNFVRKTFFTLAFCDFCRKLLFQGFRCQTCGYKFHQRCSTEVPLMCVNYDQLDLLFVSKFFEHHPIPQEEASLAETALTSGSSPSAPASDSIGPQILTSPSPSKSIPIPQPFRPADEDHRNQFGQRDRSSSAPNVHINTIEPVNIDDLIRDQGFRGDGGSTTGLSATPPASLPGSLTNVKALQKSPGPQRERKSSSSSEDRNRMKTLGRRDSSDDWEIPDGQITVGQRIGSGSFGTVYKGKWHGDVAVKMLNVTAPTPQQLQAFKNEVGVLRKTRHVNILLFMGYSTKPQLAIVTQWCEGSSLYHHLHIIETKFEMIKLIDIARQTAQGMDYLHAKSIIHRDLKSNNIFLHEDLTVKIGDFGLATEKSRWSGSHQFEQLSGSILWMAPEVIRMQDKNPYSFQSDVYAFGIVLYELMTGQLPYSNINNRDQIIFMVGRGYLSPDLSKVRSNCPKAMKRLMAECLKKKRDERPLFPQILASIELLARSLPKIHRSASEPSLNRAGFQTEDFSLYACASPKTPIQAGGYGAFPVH
Procedure, shortened: as §1

c-Raf-1 = c-Raf-1 (Homo sapiens, UniProt P04049); test: c-Raf-1 kinase activity assay (AlphaScreen, biotin-MEK1 substrate); details: 100 μM ATP, 100 nM biotin-MEK1, 45 minutes at room temperature; read-out: Biochemical activity (IC50 μM) c-Raf-1
c-Raf-1, sequence (P04049 whole entry Y340D/Y341D, form open): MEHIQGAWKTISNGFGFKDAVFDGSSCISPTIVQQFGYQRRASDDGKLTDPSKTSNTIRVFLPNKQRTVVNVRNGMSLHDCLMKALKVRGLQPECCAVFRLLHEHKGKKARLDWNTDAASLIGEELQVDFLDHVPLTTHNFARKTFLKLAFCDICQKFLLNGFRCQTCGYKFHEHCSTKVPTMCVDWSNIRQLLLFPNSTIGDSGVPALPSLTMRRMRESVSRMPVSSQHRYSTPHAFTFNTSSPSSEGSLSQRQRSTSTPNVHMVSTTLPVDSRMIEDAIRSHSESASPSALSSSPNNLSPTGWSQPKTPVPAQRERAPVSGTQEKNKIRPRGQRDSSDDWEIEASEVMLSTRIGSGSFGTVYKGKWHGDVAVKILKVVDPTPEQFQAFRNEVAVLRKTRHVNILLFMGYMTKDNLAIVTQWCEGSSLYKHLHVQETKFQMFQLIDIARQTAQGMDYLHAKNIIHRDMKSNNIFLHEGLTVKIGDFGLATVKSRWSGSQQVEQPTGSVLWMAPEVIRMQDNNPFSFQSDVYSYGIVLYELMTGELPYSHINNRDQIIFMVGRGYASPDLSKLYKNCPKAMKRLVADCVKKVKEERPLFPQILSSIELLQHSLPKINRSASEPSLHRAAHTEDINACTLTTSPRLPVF
Procedure, shortened: as §1

[1] = system: COLO205 colon adenocarcinoma (B-Raf V600E mutation); test: COLO205 cell growth inhibition (ATPlite luminescence); type: cell-based; details: Homo sapiens, COLO 205, 72 h, COLO205 cells, incubated 3 days with compound
Procedure: Compounds are assessed in a variety of cell based assays. For example human cell lines with B-Raf V600E mutation (A375 melanoma, SKMEL3 melanoma, and COLO205 colon adenocarcinoma), as well as tumorigenic cell lines with wild-type B-RAF (SW620 colon adenocarcinoma) or with Ras mutations (SKMEL2 melanoma and IPC298 melanoma). Similar assays may be used to assess additional tumorigenic cell lines with Ras mutations, including, but not limited to, M202, M207, M243, M244, M296, S117, HCT116, HCT15, DLD1, MiaPaCa, A549, NCI-H23, NCI-H460, HOP62, MDA-MB231, Hs-578T, HL60, MOLT-4, and CCRF-CEM.
On day 1, cells are counted, then centrifuged in a conical tube for 5 minutes at 1000 rpm. The supernatant is removed and cells are re-suspended as follows: • SW620 (ATCC catalog #CCL-27): resuspend in Leibovitz's L-15 medium, 2 mM L-glutamine, 10% fetal bovine serum to 6×10^4 cells/mL. • A375 (ATCC catalog #CRL-1619): resuspend in Dulbecco's modified Eagle's medium, 4 mM L-glutamine, 4.5 g/L D-glucose, 10% fetal bovine serum to 6×10^4 cells/mL. • COLO205 (ATCC catalog #CCL-222): resuspend in RPMI 1640, 2 mM L-glutamine, 1.5 g/L sodium bicarbonate, 4.5 g/L D-glucose, 10 mM HEPES, 1.0 mM sodium pyruvate, 10% fetal bovine serum to 6×10^4 cells/mL. • SKMEL2 (ATCC catalog #HTB-68): resuspend in Minimum Eagle essential medium, 2 mM L-glutamine, 1.5 g/L sodium bicarbonate, 0.1 mM non-essential amino acids, 1.0 mM sodium pyruvate, 10% fetal bovine serum to 6×10^4 cells/mL. • SKMEL3 (ATCC catalog #HTB-69): resuspend in McCoy's 5A medium, 1.5 mM L-glutamine, 15% fetal bovine serum to 6×10^4 cells/mL. • IPC298 (DSMZ catalog #ACC 251): resuspend in RPMI 1640, 2 mM L-glutamine, 10% fetal bovine serum to 6×10^4 cells/mL.
The cells are plated, 50 μL in each well of a 96-well dish (Corning 3610) and incubated at 37° C. in 5% CO2 overnight, cells plated to a final concentration of cells as follows:
On day 2, compound at a maximum concentration of 5 mM is serially diluted 1:3 (e.g. 10 μL with 30 μL dimethyl sulfoxide) for a total of 8 point titration with DMSO as a control. A 1 μL aliquot of each dilution point and control is added to 249 μL growth media and 50 μL is added to a well containing cells, providing 10 μM compound at the maximum concentration point. The cells are incubated for 3 days at 37° C. in 5% CO2.
On day 5, ATPlite 1 step Luminescence Assay System (Perkin Elmer #6016739) is brought to room temperature along with the cell cultures. ATPlite is added 25 μL to each well, shake for 2 minutes, and the cells are incubated at room temperature for 10 minutes, then luminescence is read on Safire reader. The measured luminescence correlates directly with cell number, such that the reading as a function of compound concentration is used to determine the IC50 value.
It is understood that the results of these assays may vary as assay conditions are varied. Inhibition levels determined under the conditions described herein represent a relative activity for the compounds tested under the specific conditions employed. The cell based assays are likely to show variability due to the complexity of the system and the sensitivity thereof to any changes in the assay conditions. […] Results for compounds that are tested and show substantially no inhibition below the highest tested concentration are represented as “-” in the tables below. In some instances, the compounds were not tested in all of the assays, or assay results were not valid, as indicated by NA in the tables below.

[2] = Relative solubility by turbidity in aqueous buffers (pH 1.5, 4.5, 6.8, 7.4); type: physicochemical; details: for turbidity threshold (L, M, H) 1.4: pH 1.5 buffer (SGF); for turbidity threshold (L, M, H) 4.5: pH 4.5 buffer (SIF); for turbidity threshold (L, M, H) 6.8: pH 6.8 buffer (SIF); for turbidity threshold (L, M, H) 7.4: pH 7.4 buffer (HEPES)
Procedure: As an indication of relative solubility, the turbidity of compounds in aqueous solutions is assessed. To assess possible compound properties in different physiological compartments, such as stomach, intestine, and blood, a series of aqueous buffers with varying pH is used. Thus each compound is diluted into four different physiologically relevant buffers and solution turbidity is measured by spectrophotometry.
Compounds are dissolved at a concentration of 25 mM in dimethyl sulfoxide, then serially diluted 1:1 into a 96 well plate, diluting 10 times in pure dimethyl sulfoxide, with the final well of each row a dimethyl sulfoxide blank. In an assay plate, 99 μL of appropriate buffer is added to each well, and 1 μL of each sample dilution is added to the buffer, achieving a range of final total concentrations in aqueous solutions having different pH. The buffers used are Simulated Gastric Fluid (SGF-pH 1.5) 0.5M NaCl, pH 1.5; Simulated Intestinal fluid (SIF-pH 4.5 and pH 6.8) 0.05M NaH2PO4, pH 4.5 and 6.8; and Hepes Buffer (HEPES-pH 7.4) 10 mM HEPES, 150 mM NaCl, pH 7.4. Control compounds pyrene, estriol and propranolol HCl are also assessed. Plates are spun and then mixed for 1 minute, and the absorbance is read using a Tecan Safire II to read wavelengths in the visible range (490, 535, and 650 nm) at four locations per well, reflecting the degree of turbidity present. The average optical density for each wavelength in each well is graphed vs. compound concentration, and the concentration at which the curve crosses a threshold O.D. of 0.01 for each wavelength is reported as the endpoint turbidity assay result. The average of the three wavelengths is used to compare turbidity of compounds. Compounds are considered to have low solubility if the threshold concentration is <31.3 μM, moderate solubility if the threshold concentration is 31.3 μM to 250 μM, and high solubility if the threshold concentration is >250 μM.
The following table indicates the relative solubility (L=low, M=moderate, H=high) based on turbidity threshold concentration at each pH for exemplary compounds according to the invention: […]

B-Raf, sequence (P15056 whole entry): as the sequence (P15056 whole entry V600E) above, with E600V counted along it

Structure (SMILES)	IC50 (B-Raf) [µM]	IC50 (B-Raf V600E) [µM]	IC50 (c-Raf-1) [µM]	IC50 [1] [µM]	turbidity threshold (L, M, H) 1.4 [2]	turbidity threshold (L, M, H) 4.5 [2]	turbidity threshold (L, M, H) 6.8 [2]	turbidity threshold (L, M, H) 7.4 [2]
CCCS(=O)(=O)Nc1ccc(F)c(C(=O)c2c[nH]c3ncc(-c4cccc5[nH]ncc45)cc23)c1F [P-0009, Propane-1-sulfonic acid {2,4-difluoro-3-[5-(1H-indazol-4-yl)-1H-pyrrolo[2,3-b]pyridine-3-carbonyl]-phenyl}-amide]	< 1	< 1	< 1	< 1				
CCCS(=O)(=O)Nc1ccc(F)c(C(=O)c2c[nH]c3ncc(-c4ccc5scnc5c4)cc23)c1F [P-0013, Propane-1-sulfonic acid [3-(5-benzothiazol-5-yl-1H-pyrrolo[2,3-b]pyridine-3-carbonyl)-2,4-difluoro-phenyl]-amide]	< 0.1	< 0.1	< 0.1	< 1				
CCCS(=O)(=O)Nc1ccc(F)c(C(=O)c2c[nH]c3ncc(-c4ccc5nccnc5c4)cc23)c1F [P-0014, Propane-1-sulfonic acid [2,4-difluoro-3-(5-quinoxalin-6-yl-1H-pyrrolo[2,3-b]pyridine-3-carbonyl)-phenyl]-amide]	< 0.1	< 0.1	< 0.1	< 1				
CCCS(=O)(=O)Nc1ccc(F)c(C(=O)c2c[nH]c3ncc(-c4cccc5[nH]ccc45)cc23)c1F [P-0019, Propane-1-sulfonic acid {2,4-difluoro-3-[5-(1H-indol-4-yl)-1H-pyrrolo[2,3-b]pyridine-3-carbonyl]-phenyl}-amide]	< 0.1	< 0.1	< 0.1	> 1				
CCCS(=O)(=O)Nc1ccc(F)c(C(=O)c2c[nH]c3ncc(-c4cn5ccccc5n4)cc23)c1F [P-0021, Propane-1-sulfonic acid [2,4-difluoro-3-(5-imidazo[1,2-a]pyridin-2-yl-1H-pyrrolo[2,3-b]pyridine-3-carbonyl)-phenyl]-amide]	< 0.1	< 0.1	< 0.1	< 1				
CCCS(=O)(=O)Nc1ccc(F)c(C(=O)c2c[nH]c3ncc(-c4cn5ccc(C(F)(F)F)nc5n4)cc23)c1F [P-0022, Propane-1-sulfonic acid {2,4-difluoro-3-[5-(7-trifluoromethyl-imidazo[1,2-a]pyrimidin-2-yl)-1H-pyrrolo[2,3-b]pyridine-3-carbonyl]-phenyl}-amide]	< 0.1	< 0.1	< 0.1	> 1				
CCCS(=O)(=O)Nc1ccc(F)c(C(=O)c2c[nH]c3ncc(-c4ccc5[nH]nc(C)c5c4)cc23)c1F [P-0024, Propane-1-sulfonic acid {2,4-difluoro-3-[5-(3-methyl-1H-indazol-5-yl)-1H-pyrrolo[2,3-b]pyridine-3-carbonyl]-phenyl}-amide]	< 0.1	< 0.1	< 0.1	< 1				
CCCS(=O)(=O)Nc1ccc(F)c(C(=O)c2c[nH]c3ncc(-c4cnn(-c5ncccn5)c4)cc23)c1F [P-1005, Propane-1-sulfonic acid {2,4-difluoro-3-[5-(1-pyrimidin-2-yl-1H-pyrazol-4-yl)-1H-pyrrolo[2,3-b]pyridine-3-carbonyl]-phenyl}-amide]	< 0.1	< 0.1	< 0.1	< 1				
CCCS(=O)(=O)Nc1ccc(F)c(C(=O)c2c[nH]c3ncc(-c4cnn(-c5nnn[nH]5)c4)cc23)c1F [P-1008, Propane-1-sulfonic acid (2,4-difluoro-3-{5-[1-(1H-tetrazol-5-yl)-1H-pyrazol-4-yl]-1H-pyrrolo[2,3-b]pyridine-3-carbonyl}-phenyl)-amide]	< 0.1	< 0.1	< 0.1	> 1				
CONC(=O)c1cccc(-c2cnc3[nH]cc(C(=O)c4c(F)ccc(NS(=O)(=O)c5cc(F)ccc5F)c4F)c3c2)c1 [P-1704, 3-{3-[3-(2,5-Difluoro-benzenesulfonylamino)-2,6-difluoro-benzoyl]-1H-pyrrolo[2,3-b]pyridin-5-yl}-N-methoxy-benzamide]	< 0.1	< 0.1	< 0.1		L (low solubility if the threshold concentration is <31.3 μM)	L (low solubility if the threshold concentration is <31.3 μM)	L (low solubility if the threshold concentration is <31.3 μM)	L (low solubility if the threshold concentration is <31.3 μM)
CONC(=O)c1ccc(-c2cnc3[nH]cc(C(=O)c4c(F)ccc(NS(=O)(=O)c5cc(F)ccc5F)c4F)c3c2)cc1 [P-1705, 4-{3-[3-(2,5-Difluoro-benzenesulfonylamino)-2,6-difluoro-benzoyl]-1H-pyrrolo[2,3-b]pyridin-5-yl}-N-methoxy-benzamide]	< 0.1	< 0.1	< 0.1		M (moderate solubility if the threshold concentration is 31.3 μM to 250 μM)	L (low solubility if the threshold concentration is <31.3 μM)	L (low solubility if the threshold concentration is <31.3 μM)	L (low solubility if the threshold concentration is <31.3 μM)

— patent US9440969B2, “Compounds and methods for kinase modulation, and indications therefor” (PLEXXIKON INC., priority 2009, dated 2016)
